Experimental findings from US10858367B2, “Compounds” (GLAXOSMITHKLINE INTELLECTUAL PROPERTY DEVELOPMENT LIMITED, priority 2017, dated 2020) are described below.

T1 sequence (Q5S007 whole entry): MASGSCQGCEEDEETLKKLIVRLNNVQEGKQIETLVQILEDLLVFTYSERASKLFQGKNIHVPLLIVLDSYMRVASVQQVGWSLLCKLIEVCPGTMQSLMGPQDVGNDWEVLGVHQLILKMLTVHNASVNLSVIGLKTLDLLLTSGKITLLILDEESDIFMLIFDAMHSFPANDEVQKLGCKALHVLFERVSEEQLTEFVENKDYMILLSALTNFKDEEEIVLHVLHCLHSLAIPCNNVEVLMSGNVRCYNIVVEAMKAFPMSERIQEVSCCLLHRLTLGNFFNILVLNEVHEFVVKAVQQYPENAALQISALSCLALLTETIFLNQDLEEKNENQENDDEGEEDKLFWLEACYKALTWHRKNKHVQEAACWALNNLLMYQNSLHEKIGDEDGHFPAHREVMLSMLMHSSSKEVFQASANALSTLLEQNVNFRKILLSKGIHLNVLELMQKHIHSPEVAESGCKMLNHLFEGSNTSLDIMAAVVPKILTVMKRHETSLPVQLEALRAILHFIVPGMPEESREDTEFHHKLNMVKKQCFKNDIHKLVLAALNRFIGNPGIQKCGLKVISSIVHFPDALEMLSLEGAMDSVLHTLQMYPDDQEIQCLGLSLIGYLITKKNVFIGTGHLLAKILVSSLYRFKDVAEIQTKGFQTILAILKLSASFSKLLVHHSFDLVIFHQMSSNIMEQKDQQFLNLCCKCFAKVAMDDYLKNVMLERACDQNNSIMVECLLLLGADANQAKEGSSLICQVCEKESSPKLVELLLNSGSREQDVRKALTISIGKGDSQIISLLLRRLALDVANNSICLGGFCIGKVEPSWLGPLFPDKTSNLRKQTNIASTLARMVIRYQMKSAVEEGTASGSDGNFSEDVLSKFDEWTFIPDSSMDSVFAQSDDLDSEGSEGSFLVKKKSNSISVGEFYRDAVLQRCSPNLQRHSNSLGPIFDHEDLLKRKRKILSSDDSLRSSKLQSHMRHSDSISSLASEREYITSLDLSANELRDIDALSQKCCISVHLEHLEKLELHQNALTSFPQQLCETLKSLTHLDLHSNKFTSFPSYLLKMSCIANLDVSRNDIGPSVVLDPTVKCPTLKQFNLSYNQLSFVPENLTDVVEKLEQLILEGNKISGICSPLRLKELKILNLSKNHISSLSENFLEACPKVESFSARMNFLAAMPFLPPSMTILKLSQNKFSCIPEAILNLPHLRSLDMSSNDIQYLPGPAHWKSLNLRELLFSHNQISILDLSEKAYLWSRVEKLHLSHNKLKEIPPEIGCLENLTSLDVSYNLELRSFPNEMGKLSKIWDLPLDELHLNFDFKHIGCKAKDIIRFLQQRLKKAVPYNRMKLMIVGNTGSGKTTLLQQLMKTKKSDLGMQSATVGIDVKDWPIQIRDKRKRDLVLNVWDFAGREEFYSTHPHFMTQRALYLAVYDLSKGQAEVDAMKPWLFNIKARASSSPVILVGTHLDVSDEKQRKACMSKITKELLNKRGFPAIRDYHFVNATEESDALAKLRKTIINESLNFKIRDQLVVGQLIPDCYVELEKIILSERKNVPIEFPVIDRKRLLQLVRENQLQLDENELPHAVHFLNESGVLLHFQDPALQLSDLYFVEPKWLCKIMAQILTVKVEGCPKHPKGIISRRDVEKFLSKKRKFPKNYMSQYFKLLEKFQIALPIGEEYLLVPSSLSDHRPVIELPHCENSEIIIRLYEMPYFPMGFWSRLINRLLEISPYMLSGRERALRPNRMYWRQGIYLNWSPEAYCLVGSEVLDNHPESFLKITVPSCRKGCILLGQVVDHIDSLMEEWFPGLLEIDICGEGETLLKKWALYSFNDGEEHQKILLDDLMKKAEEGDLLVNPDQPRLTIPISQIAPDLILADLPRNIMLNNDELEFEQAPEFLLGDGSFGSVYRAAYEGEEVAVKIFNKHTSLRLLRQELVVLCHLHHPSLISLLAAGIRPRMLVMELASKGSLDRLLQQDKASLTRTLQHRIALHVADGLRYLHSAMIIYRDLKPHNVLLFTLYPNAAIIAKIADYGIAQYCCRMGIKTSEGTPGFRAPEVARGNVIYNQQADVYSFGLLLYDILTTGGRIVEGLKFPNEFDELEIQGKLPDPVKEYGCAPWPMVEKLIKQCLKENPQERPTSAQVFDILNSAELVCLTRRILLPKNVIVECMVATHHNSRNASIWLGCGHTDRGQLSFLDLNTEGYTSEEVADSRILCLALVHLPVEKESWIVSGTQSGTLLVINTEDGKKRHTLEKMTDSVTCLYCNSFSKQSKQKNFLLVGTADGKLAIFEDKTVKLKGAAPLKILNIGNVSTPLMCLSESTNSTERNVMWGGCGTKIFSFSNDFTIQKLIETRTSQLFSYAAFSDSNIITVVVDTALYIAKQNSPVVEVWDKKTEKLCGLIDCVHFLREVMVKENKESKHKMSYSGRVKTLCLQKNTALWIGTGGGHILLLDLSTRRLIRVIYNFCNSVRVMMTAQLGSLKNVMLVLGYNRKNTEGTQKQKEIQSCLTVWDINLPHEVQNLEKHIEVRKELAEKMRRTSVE

The assay concerns the target T1, LRRK2 Ser935 phosphorylation in SH-SY5Y cells over-expressing recombinant full length LRRK2 (Homo sapiens, UniProt Q5S007).
T1 construct: A BacMam virus expressing full length recombinant LRRK2 was purchased from Invitrogen; host or cells: SH-SY5Y human neuroblastoma cells transduced with BacMam LRRK2 virus
Nature of the assay: Recombinant cellular LRRK2 AlphaScreen assay. Particulars: human neuroblastoma SH-SY5Y cells, BacMam full length LRRK2, 60 minutes with compound, read-out: pIC50 in the recombinant cellular LRRK2 AlphaScreen assay (converted). Format: cell-based. The text has this: b. Recombinant Cellular LRRK2 AlphaScreen Assay
To determine the activity of compounds against LRRK2 kinase activity in cells, the observed LRRK2 kinase-dependent modulation of LRRK2 Ser 935 phosphorylation (Dzamko et al., 2010, Biochem. J. 430: 405-413) was utilized to develop a quantitative 384 well plate-based immunoassay of LRRK2 Ser935 phosphorylation in the human neuroblastoma cell line SH-SY5Y, engineered to over-express recombinant full length LRRK2 protein.
A BacMam virus expressing full length recombinant LRRK2 was purchased from Invitrogen and amplified by inoculation of SF-9 cells at MOI 0.3 for 4-5 days in Sf-900 III SFM medium supplemented with 3% fetal bovine serum. Infected cell cultures were then centrifuged at 2000 g for 20 minutes, viral supernatant titer determined by anti-gp64 plaque assay and stored at 4° C.
Affinity-purified anti-phospho LRRK2 Ser935 sheep polyclonal antibody (Dzamko et al., 2010, Biochem. J. 430: 405-413) was biotinylated by standard methods (PerkinElmer). Anti-LRRK2 rabbit polyclonal antibody was purchased from Novus Biologicals. AlphaScreen Protein A IgG Kit (including acceptor and donor beads) was purchased from Perkin Elmer.
SH-SY5Y cells were grown in DMEM/F12 medium with 10% dialysed fetal bovine serum and harvested by treatment with 0.5% trypsin-EDTA for 5 minutes at 37° C. followed by centrifugation at 1000 rpm for 4 minutes. The cell pellet was resuspended in Opti-MEM reduced serum media (Invitrogen) at 200,000 cells/ml and mixed with the BacMam LRRK2 virus at MOI=50. 50 μl cell solutions were then dispensed to each well of a 384-well plate and incubated at 37° C., 5% CO2 for 24 hours.
Serial dilutions of test compounds were prepared in Opti-MEM reduced serum media (Invitrogen) and 5.6 ul transferred from compound plate to cell assay plate to achieve a top final assay concentration of 10 uM. DMSO was used in certain wells as controls. Cells were incubated at 37° C., 5% CO2 for 60 minutes. The medium was then removed and cells lysed by addition of 20 ul cell lysis buffer (Cell Signaling Technology) and incubation at 4° C. for 20 minutes. 10 ul of antibody/acceptor bead mix [(1/1000 biotinylated-pS935 LRRK2 antibody, 1/1000 total-LRRK2 antibody, 1/100 Acceptor beads in AlphaScreen detection buffer (25 mM Hepes (pH 7.4), 0.5% Triton X-100, 1 mg/ml Dextran 500 and 0.1% BSA)] was then added to each well and plates incubated for 2 hours at ambient temperature in the dark. 10 μl of donor beads solution (1/33.3 donor beads in AlphaScreen detection buffer) was then added to each well. Following incubation for a further 2 hours at ambient temperature in the dark, plates were read on an EnVision™ plate reader at emission 520-620 nm with excitation 680 nm. Dose response curve data was based on sigmoidal dose-response model.
Turning to `Cc1nc(N2CC3CC(C2)C3C(=O)O)cc(-n2ncc3cc(C)c([C@H]4CC[C@@](C)(O)CC4)cc32)n1` (single isomer, unassigned) [Example E77, Cis-3-{6-[6-(4-Hydroxy-4-methyl-cyclohexyl)-5-methyl-indazol-1-yl]-2-methyl-pyrimidin-4-yl}-3-aza-bicyclo[3.1.1]heptane-6-carboxylic Acid], the IC50 was no more than 1000 nM.

In the case of `COc1nc(N2CC3CCC(C2)O3)cc(-n2ncc3cc(C)c(C4CCN(C5COC5)CC4)cc32)n1` [Example E41, 3-(2-Methoxy-6-(5-methyl-6-(1-(oxetan-3-yl)piperidin-4-yl)-1H-indazol-1-yl)pyrimidin-4-yl)-8-oxa-3-azabicyclo[3.2.1]octane], the IC50 is no more than 1000 nM.

`Cc1nc(N2CC3CCC(C2)O3)cc(-n2ncc3cc(C)c(C4CCN(C5COC5)CC4)cc32)n1` [Example E42, 3-(2-Methyl-6-(5-methyl-6-(1-(oxetan-3-yl)piperidin-4-yl)-1H-indazol-1-yl)pyrimidin-4-yl)-8-oxa-3-azabicyclo[3.2.1]octane]: the IC50 was no more than 1000 nM.

`Cc1nc(N2C[C@@]3(CO)C[C@@H]2CO3)cc(-n2ncc3cc(C)c(C4CCOCC4O)cc32)n1` (single isomer, unassigned) [Example E168, 4-(1-(6-(1-(hydroxymethyl)-2-oxa-5-azabicyclo[2.2.1]heptan-5-yl)-2-methylpyrimidin-4-yl)-5-methyl-1H-indazol-6-yl)tetrahydro-2H-pyran-3-ol]: the IC50 was no more than 1000 nM.

As to `[2H]C([2H])([2H])Oc1nc(N2C[C@H]3C[C@@H]2CO3)cc(-n2ncc3cc(C)c(C4CCN(C5COC5)CC4)cc32)n1` [Example E72, (1R,4R)-5-(6-(5-methyl-6-(1-(oxetan-3-yl)piperidin-4-yl)-1H-indazol-1-yl)-2-(trideuteriummethoxy)pyrimidin-4-yl)-2-oxa-5-azabicyclo[2.2.1]heptane], the IC50 was no more than 10 nM.

For the molecule `Cc1nc(N2CC3CC2CO3)cc(-n2ncc3cc(C)c([C@H]4CC[C@@](C)(O)CC4)cc32)n1` (single isomer, unassigned) [Example E9], the IC50 is no more than 1000 nM.

Take `COc1nc(N2CC3CC(C2)C3C(=O)O)cc(-n2ncc3cc(C)c(OC(C)C)cc32)n1` (stereo not shown) [Example E81, 3-(6-(6-isopropoxy-5-methyl-1H-indazol-1-yl)-2-methoxypyrimidin-4-yl)-3-azabicyclo[3.1.1]heptane-6-carboxylic Acid]: the IC50 was no more than 10 nM.

For `Cc1nc(N2C[C@@H]3C[C@H]2CO3)cc(-n2ncc3cc(Cl)c(N4CCC(C)(O)C4)cc32)n1` (single isomer, unassigned) [Example E47], the IC50 is no more than 1000 nM.

With `Cc1nc(N2CC3CC(C2)O3)cc(-n2ncc3cc(C)c(C4CCN(C5COC5)CC4)cc32)n1` [Example E44, 3-(2-Methyl-6-(5-methyl-6-(1-(oxetan-3-yl)piperidin-4-yl)-1H-indazol-1-yl)pyrimidin-4-yl)-6-oxa-3-azabicyclo[3.1.1]heptane], the IC50 is no more than 1000 nM.

`Cc1nc(N2CC3CCC(C2)O3)cc(-n2ncc3cc(C)c(C4CCNCC4)cc32)n1` [Example E63, 3-(2-methyl-6-(5-methyl-6-(piperidin-4-yl)-1H-indazol-1-yl)pyrimidin-4-yl)-8-oxa-3-azabicyclo[3.2.1]octane 2,2,2-trifluoroacetate]: the IC50 was no more than 1000 nM.

For `Cc1nc(N2C[C@@H]3C[C@H]2CO3)cc(-n2ncc3cc(C)c(C4CCN(CCC(=O)O)CC4F)cc32)n1` (single isomer, unassigned) [Example E157], the IC50 is no more than 1000 nM.

As to `Cc1nc(N2CC3CC2CN3C2COC2)cc(-n2ncc3cc(C)c([C@H]4CC[C@@](C)(O)CC4)cc32)n1` (stereo partly drawn) [Example E30, Cis-1-methyl-4-(5-methyl-1-(2-methyl-6-((1S,4S)-5-(oxetan-3-yl)-2,5-diazabicyclo[2.2.1]heptan-2-yl)pyrimidin-4-yl)-1H-indazol-6-yl)cyclohexanol], the IC50 was no more than 1000 nM.

As to `COc1nc(N2C[C@H]3C[C@@H]2CO3)cc(-n2ncc3cc(C)c(C4CCN(C5CCOC5)CC4)cc32)n1` (single isomer, unassigned) [Example E13], the IC50 was no more than 1000 nM.

For the molecule `Cc1nc(N2C[C@H]3C[C@@H]2CO3)cc(-n2ncc3cc(C)c(C4CCN(C5COCC5O)CC4)cc32)n1` (single isomer, unassigned) [Example E172], the IC50 was no more than 1000 nM.

With `Cc1nc(N2C[C@H]3C[C@@H]2CN3C2COC2)cc(-n2ncc3cc(C)c([C@H]4CC[C@](C)(O)CC4)cc32)n1` [Example E31, Trans-1-methyl-4-(5-methyl-1-(2-methyl-6-((1R,4R)-5-(oxetan-3-yl)-2,5-diazabicyclo[2.2.1]heptan-2-yl)pyrimidin-4-yl)-1H-indazol-6-yl)cyclohexanol], the IC50 was 1070 nM.

In the case of `Cc1nc(N2C3CCC2COC3)cc(-n2ncc3cc(C)c(C4CCN(C5COC5)CC4)cc32)n1` [Example E45, 8-(2-methyl-6-(5-methyl-6-(1-(oxetan-3-yl)piperidin-4-yl)-1H-indazol-1-yl)pyrimidin-4-yl)-3-oxa-8-azabicyclo[3.2.1]octane], the IC50 is no more than 1000 nM.

For the molecule `COc1nc(N2C[C@@H]3C[C@H]2CO3)cc(-n2ncc3ccc(OC4(C)CC4)cc32)n1` [Example E4, (1S,4S)-5-(2-methoxy-6-(6-(1-methylcyclopropoxy)-1H-indazol-1-yl)pyrimidin-4-yl)-2-oxa-5-azabicyclo[2.2.1]heptane], the IC50 was no more than 1000 nM.

As for `Cc1nc(N2C[C@H]3C[C@@H]2CO3)cc(-n2ncc3cc(C)c(C4C5CN(CCS(C)(=O)=O)CC54)cc32)n1` (stereo partly drawn) [Example E180, (1R,4R)-5-(2-methyl-6-(5-methyl-6-(3-(2-(methylsulfonyl)ethyl)-3-azabicyclo[3.1.0]hexan-6-yl)-1H-indazol-1-yl)pyrimidin-4-yl)-2-oxa-5-azabicyclo[2.2.1]heptane], the IC50 is no more than 1000 nM.

Turning to `Cc1nc(N2C[C@H]3C[C@@H]2CO3)cc(-n2ncc3cc(Cl)c(C4CCN(C5COC5)CC4)cc32)n1` [Example E25, (1R,4R)-5-(6-(5-chloro-6-(1-(oxetan-3-yl)piperidin-4-yl)-1H-indazol-1-yl)-2-methylpyrimidin-4-yl)-2-oxa-5-azabicyclo[2.2.1]heptane], the IC50 was no more than 1000 nM.

With `[2H]C1(N2CCC(c3cc4c(cnn4-c4cc(N5C[C@@H]6C[C@H]5CO6)nc(OC)n4)cc3C)CC2)COC1` [Example E57, (1S,4S)-5-(6-(6-(1-(3-deuterooxetan-3-yl)piperidin-4-yl)-5-methyl-1H-indazol-1-yl)-2-methoxypyrimidin-4-yl)-2-oxa-5-azabicyclo[2.2.1]heptane], the IC50 was no more than 1000 nM.

With `COc1nc(N2C[C@H]3C[C@@H]2CO3)cc(-n2ncc3cc(Cl)c(C4CCN(C5COC5)CC4)cc32)n1` [Example E5, (1R,4R)-5-(6-(5-chloro-6-(1-(oxetan-3-yl)piperidin-4-yl)-1H-indazol-1-yl)-2-methoxypyrimidin-4-yl)-2-oxa-5-azabicyclo[2.2.1]heptane], the IC50 is no more than 10 nM.

For the molecule `Cc1nc(N2C[C@H]3C[C@@H]2CO3)cc(-n2ncc3cc(Cl)c(N4CCC(C)(O)C4)cc32)n1` (single isomer, unassigned) [Example E49], the IC50 is no more than 1000 nM.

As to `Cc1nc(N2C[C@H]3C[C@@H]2CO3)cc(-n2ncc3cc(C)c(C4CCN(C5COC5)CC4C)cc32)n1` (stereo partly drawn) [Example E55, (1R,4R)-5-(2-methyl-6-(5-methyl-6-(3-methyl-1-(oxetan-3-yl)piperidin-4-yl)-1H-indazol-1-yl)pyrimidin-4-yl)-2-oxa-5-azabicyclo[2.2.1]heptane], the IC50 is no more than 1000 nM.

With `COc1nc(N2C[C@H]3C[C@@H]2CO3)cc(-n2ncc3ccc(OC4(C)CC4)cc32)n1` [Example E3, (1R,4R)-5-(2-methoxy-6-(6-(1-methylcyclopropoxy)-1H-indazol-1-yl)pyrimidin-4-yl)-2-oxa-5-azabicyclo[2.2.1]heptane], the IC50 is no more than 1000 nM.

Consider `COc1nc(N2CC3CC2CO3)cc(-n2ncc3cc(C)c(C4CCN(C5COC5)CC4O)cc32)n1` (single isomer, unassigned) [Example E132], for which the IC50 was no more than 1000 nM.
